Like-named read-outs stand apart in the source and are kept apart here.
Experiments:
Type in all cases: cell-based
hGIPR = target: T1, hGIPR (Homo sapiens, UniProt P48546); test: Functional cAMP formation (HTRF) in HEK-293 clonal cells expressing hGIPR, 0.1% bovine casein, without or with 1.0% human serum albumin; settings: for EC50: geometric mean, read-out: hGIPR EC50, nM (SEM, n); for Emax: HEK293, 0.1% bovine casein and 1.0% human serum albumin, percent of maximal response to GIP(1-42)NH2, read-out: hGIPR Emax, % ± SEM
T1 construct: expressed in transfected cells
T1 sequence (P48546 22-466): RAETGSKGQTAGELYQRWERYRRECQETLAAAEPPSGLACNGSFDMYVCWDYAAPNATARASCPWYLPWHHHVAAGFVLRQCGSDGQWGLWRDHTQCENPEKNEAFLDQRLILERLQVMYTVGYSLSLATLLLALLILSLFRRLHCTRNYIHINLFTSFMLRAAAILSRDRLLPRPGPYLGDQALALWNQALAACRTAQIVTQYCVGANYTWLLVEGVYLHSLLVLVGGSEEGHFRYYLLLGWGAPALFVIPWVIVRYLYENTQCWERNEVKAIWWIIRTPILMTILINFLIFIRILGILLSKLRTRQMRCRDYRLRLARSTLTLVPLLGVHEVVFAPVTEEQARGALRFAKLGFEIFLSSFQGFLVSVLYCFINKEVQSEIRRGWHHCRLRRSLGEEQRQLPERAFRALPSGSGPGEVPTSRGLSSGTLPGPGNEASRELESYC
In short: (§1)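 Cells were stimulated with peptide for 30 min at 37° C, then lysed in buffer carrying cAMP-d2 and anti-cAMP Eu3+-cryptate for a competitive HTRF read after at least 60 min at room temperature. The 665/620 nm ratio was converted to nM cAMP against a standard curve.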

hGLP-1R = hGLP-1R (Homo sapiens, UniProt P43220); test: Functional cAMP formation (HTRF) in HEK-293 clonal cells expressing hGLP-1R, 0.1% bovine casein, without or with 1.0% human serum albumin; design: expressed in transfected cells; settings: for Emax: HEK293, 0.1% bovine casein and 1.0% human serum albumin, 37° C., percent of maximal response to GLP-1(7-36)NH2, read-out: hGLP-1R Emax, % ± SEM; for EC50: cAMP, incubated at 37° C., 0.1% bovine casein (no human serum albumin), geometric mean, read-out: hGLP-1R EC50, nM (SEM, n)
hGLP-1R, sequence (P43220 24-463): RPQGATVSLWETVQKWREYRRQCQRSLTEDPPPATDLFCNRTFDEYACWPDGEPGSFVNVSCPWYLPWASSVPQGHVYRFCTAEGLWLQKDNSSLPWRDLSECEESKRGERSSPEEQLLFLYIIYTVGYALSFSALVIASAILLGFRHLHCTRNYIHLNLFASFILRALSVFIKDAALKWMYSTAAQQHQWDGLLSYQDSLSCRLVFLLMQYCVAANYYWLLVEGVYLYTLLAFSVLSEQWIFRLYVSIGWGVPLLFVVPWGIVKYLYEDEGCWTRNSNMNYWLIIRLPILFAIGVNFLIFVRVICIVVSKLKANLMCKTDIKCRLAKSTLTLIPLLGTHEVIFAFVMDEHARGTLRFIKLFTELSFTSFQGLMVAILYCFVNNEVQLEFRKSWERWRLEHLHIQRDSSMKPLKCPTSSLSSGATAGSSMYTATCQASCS
In short: as §1

hGCGR = target: T2, hGCGR (Homo sapiens, UniProt P47871); test: Functional cAMP formation (HTRF) in HEK-293 clonal cells expressing hGCGR, 0.1% bovine casein, without or with 1.0% human serum albumin; settings: geometric mean, read-out: hGCGR EC50, nM (SEM, n)
T2 construct: expressed in transfected cells
T2 sequence (P47871 26-477): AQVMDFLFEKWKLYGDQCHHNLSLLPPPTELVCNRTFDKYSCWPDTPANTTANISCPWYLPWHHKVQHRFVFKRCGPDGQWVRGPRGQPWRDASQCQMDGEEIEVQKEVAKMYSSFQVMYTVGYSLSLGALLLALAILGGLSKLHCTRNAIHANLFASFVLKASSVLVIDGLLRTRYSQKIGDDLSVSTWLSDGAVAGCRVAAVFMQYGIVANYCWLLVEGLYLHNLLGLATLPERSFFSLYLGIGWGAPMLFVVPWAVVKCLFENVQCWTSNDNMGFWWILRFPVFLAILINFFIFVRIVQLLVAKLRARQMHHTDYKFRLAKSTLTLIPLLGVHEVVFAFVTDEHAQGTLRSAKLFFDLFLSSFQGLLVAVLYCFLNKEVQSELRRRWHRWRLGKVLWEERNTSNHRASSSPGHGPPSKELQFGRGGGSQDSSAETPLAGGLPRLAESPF
In short: as §1

[1] = 0.1% bovine casein and 1.0% human serum albumin, 37° C.
[2] = cAMP, incubated at 37° C., 0.1% bovine casein (no human serum albumin)

Question: Which EC50 (hGIPR; [1]) does the source give for `CC[C@H](C)[C@H](NC(=O)[C@H](CC(C)C)NC(=O)[C@](C)(Cc1ccc(O)cc1)NC(=O)[C@@H](CCC(=O)O)NC(=O)[C@@H](NC(=O)[C@H](Cc1ccccc1)NC(=O)[C@H](CCC(=O)O)NC(=O)C(C)(C)NC(=O)[C@H](CCC(N)=O)NC(=O)[C@H](C)NC(=O)[C@H](CCCCNC(=O)COCCOCCNC(=O)COCCOCCNC(=O)CC[C@H](NC(=O)CCCCCCCCCCCCC(=O)O)C(=O)O)NC(=O)[C@H](CCCN)NC(=O)[C@H](CC(=O)O)NC(=O)[C@H](CC(C)C)NC(=O)[C@](C)(CC(C)C)NC(=O)[C@@H](NC(=O)C(C)(C)NC(=O)[C@H](Cc1ccc(O)cc1)NC(=O)[C@H](CC(=O)O)NC(=O)[C@H](CO)NC(=O)[C@@H](NC(=O)[C@](C)(Cc1ccccc1F)NC(=O)[C@@H](NC(=O)CNC(=O)[C@H](CCC(=O)O)NC(=O)C(C)(C)NC(=O)[C@@H](N)Cc1ccc(O)cc1)[C@@H](C)O)[C@@H](C)O)[C@@H](C)CC)[C@@H](C)CC)C(=O)N[C@@H](CCCCNC(=O)COCCOCCNC(=O)COCCOCCNC(=O)CC[C@H](NC(=O)CCCCCCCCCCCCC(=O)O)C(=O)O)C(=O)NCC(=O)NCC(=O)N1CCC[C@H]1C(=O)N[C@@H](CO)C(=O)N[C@@H](CO)C(=O)NCC(=O)N[C@@H](C)C(=O)N1CCC[C@H]1C(=O)N1CCC[C@H]1C(=O)N1CCC[C@H]1C(=O)N[C@@H](CO)C(N)=O` [Example 231] here?
Answer: 2.46 nM

Question: What about the Emax (hGIPR; 37° C.) of the same compound?
Answer: 85.4%

Question: And the EC50 (hGIPR; [2])?
Answer: 0.0184 nM

Question: What about the Emax (hGLP-1R) of the same compound?
Answer: 109%

Question: What about the EC50 (hGLP-1R) of the same compound?
Answer: 1.22 nM

Question: What about the EC50 (hGCGR; [1]) of the same compound?
Answer: > 9950 nM

Question: What about the EC50 (hGCGR; [2]) of the same compound?
Answer: > 9950 nM

Question: What does the source list for `CC[C@H](C)[C@H](NC(=O)[C@H](CC(C)C)NC(=O)[C@](C)(Cc1ccc(O)cc1)NC(=O)[C@@H](CCC(=O)O)NC(=O)[C@@H](NC(=O)[C@H](Cc1ccccc1)NC(=O)[C@H](CCC(=O)O)NC(=O)C(C)(C)NC(=O)[C@H](CCC(N)=O)NC(=O)[C@H](C)NC(=O)[C@H](CCCCNC(=O)COCCOCCNC(=O)COCCOCCNC(=O)CC[C@H](NC(=O)CCCCCCCCCCCCC(=O)O)C(=O)O)NC(=O)[C@H](CCCN)NC(=O)[C@H](CC(=O)O)NC(=O)[C@H](CC(C)C)NC(=O)[C@](C)(CC(C)C)NC(=O)[C@@H](NC(=O)C(C)(C)NC(=O)[C@H](Cc1ccc(O)cc1)NC(=O)[C@H](CC(=O)O)NC(=O)[C@H](CO)NC(=O)[C@@H](NC(=O)[C@](C)(Cc1ccccc1F)NC(=O)[C@@H](NC(=O)CNC(=O)[C@H](CCC(=O)O)NC(=O)C(C)(C)NC(=O)[C@@H](N)Cc1ccc(O)cc1)[C@@H](C)O)[C@@H](C)O)[C@@H](C)CC)[C@@H](C)CC)C(=O)N[C@@H](CCC(=O)O)C(=O)NCC(=O)NCC(=O)N1CCC[C@H]1C(=O)N[C@@H](CO)C(=O)N[C@@H](CO)C(=O)NCC(=O)N[C@@H](C)C(=O)N1CCC[C@H]1C(=O)N1CCC[C@H]1C(=O)N1CCC[C@H]1C(=O)N[C@@H](CO)C(=O)N[C@@H](CCCCNC(=O)COCCOCCNC(=O)COCCOCCNC(=O)CC[C@H](NC(=O)CCCCCCCCCCCCC(=O)O)C(=O)O)C(N)=O` [Example 232]?
Answer: Emax (hGIPR; 37° C.): 91.5%; EC50 (hGIPR; [2]): 0.0192 nM; Emax (hGLP-1R): 95.4%; EC50 (hGLP-1R): 0.565 nM; EC50 (hGCGR; [1]): > 9950 nM; EC50 (hGCGR; [2]): > 9950 nM

Reference: patent publication US20230265151A1, “GIP/GLP1 CO-AGONIST COMPOUNDS” (priority 2020, published 2023)
